ChEMBL document CHEMBL1201861, “Genomics of Drug Sensitity in Cancer screening data, Wellcome Trust Sanger Institute”

Key:
Assay in all cases: cells
EW-3 = type: functional, cell-based, Homo sapiens; settings: Homo sapiens, EW-3;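 note: cell viability assay read-out, IC50 reflects inhibition of growth of the EW-3 cells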
Description: SANGER: Inhibition of human EW-3 cell growth in a cell viability assay.

NCI-H1395 = type: functional, cell-based, Homo sapiens; settings: Homo sapiens, NCI-H1395;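 note: cell viability assay read-out quantifying reduced proliferation of human NCI-H1395 cells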
Description: SANGER: Inhibition of human NCI-H1395 cell growth in a cell viability assay.

BV-173 = type: functional, cell-based, Homo sapiens; settings: Homo sapiens, BV-173
Description: SANGER: Inhibition of human BV-173 cell growth in a cell viability assay.

GAK = type: functional, cell-based, Homo sapiens; settings: Homo sapiens, GAK;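 note: cell growth inhibition read out by a cell viability assay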
Description: SANGER: Inhibition of human GAK cell growth in a cell viability assay.

EM-2 = type: functional, cell-based, Homo sapiens; settings: Homo sapiens, EM-2;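 note: growth inhibition of EM-2 cells, read out with a cell viability assay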
Description: SANGER: Inhibition of human EM-2 cell growth in a cell viability assay.

SF-539 = type: functional, cell-based, Homo sapiens; settings: Homo sapiens, SF-539;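 note: Read-out is a cell viability assay, with IC50 reflecting inhibition of cell growth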
Description: SANGER: Inhibition of human SF539 cell growth in a cell viability assay.

LB996-RCC = type: functional, cell-based, Homo sapiens; settings: Homo sapiens, LB996-RCC
Description: SANGER: Inhibition of human LB996-RCC cell growth in a cell viability assay.

NCI-H1770 = type: functional, cell-based, Homo sapiens; settings: Homo sapiens, NCI-H1770;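 note: growth inhibition of NCI-H1770 cells determined with a viability readout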
Description: SANGER: Inhibition of human NCI-H1770 cell growth in a cell viability assay.

SNB-75 = type: functional, cell-based, Homo sapiens; settings: Homo sapiens, SNB-75;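 note: cell viability assay measuring growth inhibition of human SNB-75 cells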
Description: SANGER: Inhibition of human SNB75 cell growth in a cell viability assay.

U-266 = type: functional, cell-based, Homo sapiens; settings: Homo sapiens, U-266
Description: SANGER: Inhibition of human U-266 cell growth in a cell viability assay.

MOLT-16 = type: functional, cell-based, Homo sapiens; settings: Homo sapiens, MOLT-16;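 note: growth inhibition of human MOLT-16 cells, read out with a cell viability assay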
Description: SANGER: Inhibition of human MOLT-16 cell growth in a cell viability assay.

BB49-HNC = type: functional, cell-based, Homo sapiens; settings: Homo sapiens, BB49-HNC;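 note: cell viability assay read-out, reported as inhibition of BB49-HNC cell growth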
Description: SANGER: Inhibition of human BB49-HNC cell growth in a cell viability assay.

RKO = type: functional, cell-based, Homo sapiens; settings: Homo sapiens, RKO;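 note: growth inhibition of human RKO cells, read out with a cell viability assay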
Description: SANGER: Inhibition of human RKO cell growth in a cell viability assay.

MN-60 = type: functional, cell-based, Homo sapiens; settings: Homo sapiens, MN-60;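 note: growth inhibition of the MN-60 cell line, determined with a cell viability assay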
Description: SANGER: Inhibition of human MN-60 cell growth in a cell viability assay.

D-502MG = type: functional, cell-based, Homo sapiens; settings: Homo sapiens, D-502MG
Description: SANGER: Inhibition of human D-502MG cell growth in a cell viability assay.

ATN-1 = type: functional, cell-based, Homo sapiens; settings: Homo sapiens, ATN-1;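 note: growth inhibition of human ATN-1 cells, read out with a cell viability assay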
Description: SANGER: Inhibition of human ATN-1 cell growth in a cell viability assay.

no-11 = type: functional, cell-based, Homo sapiens; settings: Homo sapiens;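 note: growth inhibition of human NO-11 cells, read out with a cell viability assay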
Description: SANGER: Inhibition of human no-11 cell growth in a cell viability assay.

CTB-1 = type: functional, cell-based, Homo sapiens; settings: Homo sapiens, CTB-1
Description: SANGER: Inhibition of human CTB-1 cell growth in a cell viability assay.

GT3TKB = type: functional, cell-based, Homo sapiens; settings: Homo sapiens, GT3TKB;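 note: growth inhibition of the cell line, read out with a cell viability assay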
Description: SANGER: Inhibition of human GT3TKB cell growth in a cell viability assay.

ML-2 = type: functional, cell-based, Homo sapiens; settings: Homo sapiens, ML-2;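 note: growth inhibition of ML-2 cells, measured with a cell viability readout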
Description: SANGER: Inhibition of human ML-2 cell growth in a cell viability assay.

IA-LM = type: functional, cell-based; settings: Homo sapiens;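 note: cell viability assay measuring growth inhibition of human IA-LM cells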
Description: SANGER: Inhibition of human IA-LM cell growth in a cell viability assay.

HCC1187 = type: functional, cell-based, Homo sapiens; settings: Homo sapiens, HCC1187;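 note: growth inhibition of HCC1187 cells, read out with a cell viability assay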
Description: SANGER: Inhibition of human HCC1187 cell growth in a cell viability assay.

U-87 MG = type: functional, cell-based, Homo sapiens, U-87MG ATCC; settings: Homo sapiens, U-87 MG;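 note: growth inhibition of the cells measured with a viability assay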
Description: SANGER: Inhibition of human U-87-MG cell growth in a cell viability assay.

GB-1 = type: functional, cell-based, Homo sapiens; settings: Homo sapiens, GB-1;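 note: growth of GB-1 cells judged by a viability assay, IC50 marks the concentration inhibiting growth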
Description: SANGER: Inhibition of human GB-1 cell growth in a cell viability assay.

KE-37 = type: functional, cell-based, Homo sapiens; settings: Homo sapiens, KE-37;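 note: growth inhibition of KE-37 cells, read out with a cell viability assay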
Description: SANGER: Inhibition of human KE-37 cell growth in a cell viability assay.

LS-123 = type: functional, cell-based, Homo sapiens; settings: Homo sapiens, LS-123
Description: SANGER: Inhibition of human LS-123 cell growth in a cell viability assay.

IST-MEL1 = type: functional, cell-based, Homo sapiens; settings: Homo sapiens, IST-MEL1;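 note: growth inhibition of the cell line, read out with a cell viability assay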
Description: SANGER: Inhibition of human IST-MEL1 cell growth in a cell viability assay.

K5 = type: functional, cell-based, Homo sapiens; settings: Homo sapiens, K5
Description: SANGER: Inhibition of human K5 cell growth in a cell viability assay.

PSN1 = type: functional, cell-based, Homo sapiens; settings: Homo sapiens, PSN1;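 note: suppression of growth of human PSN1 cells, read out by a cell viability assay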
Description: SANGER: Inhibition of human PSN1 cell growth in a cell viability assay.

NCI-H1092 = type: functional, cell-based, Homo sapiens; settings: Homo sapiens, NCI-H1092;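 note: cell growth inhibition measured with a cell viability assay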
Description: SANGER: Inhibition of human NCI-H1092 cell growth in a cell viability assay.

NCI-H720 = type: functional, cell-based, Homo sapiens; settings: Homo sapiens, NCI-H720;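 note: growth inhibition of human NCI-H720 cells determined by a cell viability assay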
Description: SANGER: Inhibition of human NCI-H720 cell growth in a cell viability assay.

NCI-H526 = type: functional, cell-based, Homo sapiens; settings: Homo sapiens, NCI-H526;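 note: growth inhibition of the human NCI-H526 cell line, measured by a cell viability assay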
Description: SANGER: Inhibition of human NCI-H526 cell growth in a cell viability assay.

VA-ES-BJ = type: functional, cell-based, Homo sapiens; settings: Homo sapiens, VA-ES-BJ;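 note: growth inhibition of the VA-ES-BJ cell line, read out by a cell viability assay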
Description: SANGER: Inhibition of human VA-ES-BJ cell growth in a cell viability assay.

KARPAS-299 = type: functional, cell-based, Homo sapiens; settings: Homo sapiens, KARPAS-299
Description: SANGER: Inhibition of human KARPAS-299 cell growth in a cell viability assay.

MOLT-4 = type: functional, cell-based, Homo sapiens; settings: Homo sapiens, MOLT-4;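 note: growth inhibition of MOLT-4 cells, determined with a cell viability readout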
Description: SANGER: Inhibition of human MOLT-4 cell growth in a cell viability assay.

NCI-H1581 = type: functional, cell-based, Homo sapiens; settings: Homo sapiens, NCI-H1581;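 note: cell growth inhibition read out by a viability assay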
Description: SANGER: Inhibition of human NCI-H1581 cell growth in a cell viability assay.

BB30-HNC = type: functional, cell-based, Homo sapiens; settings: Homo sapiens, BB30-HNC;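 note: growth inhibition of the cultured cell line, read out by a cell viability assay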
Description: SANGER: Inhibition of human BB30-HNC cell growth in a cell viability assay.

NCI-H1650 = type: functional, cell-based, Homo sapiens; settings: Homo sapiens, NCI-H1650;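 note: growth inhibition of human NCI-H1650 cells measured by a cell viability assay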
Description: SANGER: Inhibition of human NCI-H1650 cell growth in a cell viability assay.

OCI-AML2 = type: functional, cell-based, Homo sapiens; settings: Homo sapiens, OCI-AML2;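 note: growth inhibition of OCI-AML2 cells, read out with a cell viability assay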
Description: SANGER: Inhibition of human OCI-AML2 cell growth in a cell viability assay.

NOS-1 = type: functional, cell-based, Homo sapiens; settings: Homo sapiens, NOS-1;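 note: growth inhibition of the human NOS-1 cell line, read out with a cell viability assay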
Description: SANGER: Inhibition of human NOS-1 cell growth in a cell viability assay.

TE-10 = type: functional, cell-based, Homo sapiens; settings: Homo sapiens, TE-10;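 note: growth inhibition of TE-10 cells, measured by a cell viability assay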
Description: SANGER: Inhibition of human TE-10 cell growth in a cell viability assay.

KINGS-1 = type: functional, cell-based, Homo sapiens; settings: Homo sapiens, KINGS-1;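 note: cell viability assay measuring suppression of KINGS-1 cell growth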
Description: SANGER: Inhibition of human KINGS-1 cell growth in a cell viability assay.

NB6 = type: functional, cell-based, Homo sapiens; settings: Homo sapiens, NB6;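 note: growth inhibition of NB6 cells, read out by a cell viability assay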
Description: SANGER: Inhibition of human NB6 cell growth in a cell viability assay.

697 = type: functional, cell-based, Homo sapiens; settings: Homo sapiens
Description: SANGER: Inhibition of human 697 cell growth in a cell viability assay.

KG-1 = type: functional, cell-based, Homo sapiens; settings: Homo sapiens, KG-1;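 note: growth inhibition of KG-1 cells, read out by a cell viability assay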
Description: SANGER: Inhibition of human KG-1 cell growth in a cell viability assay.

MFM-223 = type: functional, cell-based, Homo sapiens; settings: Homo sapiens, MFM-223
Description: SANGER: Inhibition of human MFM-223 cell growth in a cell viability assay.

NCI-H2126 = type: functional, cell-based, Homo sapiens; settings: Homo sapiens, NCI-H2126;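 note: growth inhibition of the cancer cell line, determined with a cell viability readout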
Description: SANGER: Inhibition of human NCI-H2126 cell growth in a cell viability assay.

ES5 = type: functional, cell-based, Homo sapiens; settings: Homo sapiens, ES5;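 note: growth inhibition of human ES5 cells, read out by a cell viability assay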
Description: SANGER: Inhibition of human ES5 cell growth in a cell viability assay.

KLE = type: functional, cell-based; settings: Homo sapiens;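 note: growth inhibition of human KLE cells, read out with a cell viability assay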
Description: SANGER: Inhibition of human KLE cell growth in a cell viability assay.

COLO-668 = type: functional, cell-based, Homo sapiens; settings: Homo sapiens, COLO-668
Description: SANGER: Inhibition of human COLO-668 cell growth in a cell viability assay.

SMILES: OC[C@H](Cc1ccccc1)Nc1nc(Oc2ccc3c(c2)CCC3)nc2c1ncn2Cc1ccc(-c2ccccc2)cc1
- IC50 (EW-3): > 10.2 µM
- IC50 (NCI-H1395): > 10.2 µM
- IC50 (BV-173): > 10.2 µM
- IC50 (GAK): > 10.2 µM
- IC50 (EM-2): > 10.2 µM
- IC50 (SF-539): > 10.2 µM
- IC50 (LB996-RCC): > 10.2 µM
- IC50 (NCI-H1770): 8.9 µM
- IC50 (SNB-75): > 10.2 µM
- IC50 (U-266): > 10.2 µM
- IC50 (MOLT-16): > 10.2 µM
- IC50 (BB49-HNC): > 10.2 µM
- IC50 (RKO): 3.37 µM
- IC50 (MN-60): > 10.2 µM
- IC50 (D-502MG): > 10.2 µM
- IC50 (ATN-1): > 10.2 µM
- IC50 (no-11): > 10.2 µM
- IC50 (CTB-1): > 10.2 µM
- IC50 (GT3TKB): > 10.2 µM
- IC50 (ML-2): > 10.2 µM
- IC50 (IA-LM): 5.91 µM
- IC50 (HCC1187): > 10.2 µM
- IC50 (U-87 MG): > 10.2 µM
- IC50 (GB-1): 5.25 µM
- IC50 (KE-37): 9.31 µM
- IC50 (LS-123): 9.49 µM
- IC50 (IST-MEL1): > 10.2 µM
- IC50 (K5): > 10.2 µM
- IC50 (PSN1): 2.83 µM
- IC50 (NCI-H1092): > 10.2 µM
- IC50 (NCI-H720): > 10.2 µM
- IC50 (NCI-H526): > 10.2 µM
- IC50 (VA-ES-BJ): 2.57 µM
- IC50 (KARPAS-299): > 10.2 µM
- IC50 (MOLT-4): > 10.2 µM
- IC50 (NCI-H1581): > 10.2 µM
- IC50 (BB30-HNC): 3.92 µM
- IC50 (NCI-H1650): > 10.2 µM
- IC50 (OCI-AML2): 5.77 µM
- IC50 (NOS-1): > 10.2 µM
- IC50 (TE-10): 7.51 µM
- IC50 (KINGS-1): > 10.2 µM
- IC50 (NB6): > 10.2 µM
- IC50 697: 3.32 µM
- IC50 (KG-1): > 10.2 µM
- IC50 (MFM-223): > 10.2 µM
- IC50 (NCI-H2126): > 10.2 µM
- IC50 (ES5): > 10.2 µM
- IC50 (KLE): > 10.2 µM
- IC50 (COLO-668): > 10.2 µM

SMILES: O=S(=O)(O)c1ccc2cc(/N=N/c3cc(S(=O)(=O)O)c4cccnc4c3O)ccc2c1
- IC50 (EW-3): > 16 µM
- IC50 (NCI-H1395): > 16 µM
- IC50 (BV-173): > 16 µM
- IC50 (GAK): > 16 µM
- IC50 (EM-2): > 16 µM
- IC50 (SF-539): > 16 µM
- IC50 (LB996-RCC): > 16 µM
- IC50 (NCI-H1770): > 16 µM
- IC50 (SNB-75): > 16 µM
- IC50 (U-266): > 16 µM
- IC50 (MOLT-16): > 16 µM
- IC50 (BB49-HNC): > 16 µM
- IC50 (RKO): > 16 µM
- IC50 (MN-60): > 16 µM
- IC50 (D-502MG): > 16 µM
- IC50 (ATN-1): > 16 µM
- IC50 (no-11): > 16 µM
- IC50 (CTB-1): > 16 µM
- IC50 (GT3TKB): > 16 µM
- IC50 (ML-2): > 16 µM
- IC50 (IA-LM): > 16 µM
- IC50 (HCC1187): > 16 µM
- IC50 (U-87 MG): > 16 µM
- IC50 (GB-1): > 16 µM
- IC50 (KE-37): > 16 µM
- IC50 (LS-123): > 16 µM
- IC50 (IST-MEL1): > 16 µM
- IC50 (K5): > 16 µM
- IC50 (PSN1): > 16 µM
- IC50 (NCI-H1092): > 16 µM
- IC50 (NCI-H720): > 16 µM
- IC50 (NCI-H526): > 16 µM
- IC50 (VA-ES-BJ): > 16 µM
- IC50 (KARPAS-299): > 16 µM
- IC50 (MOLT-4): > 16 µM
- IC50 (NCI-H1581): > 16 µM
- IC50 (BB30-HNC): > 16 µM
- IC50 (NCI-H1650): > 16 µM
- IC50 (OCI-AML2): > 16 µM
- IC50 (NOS-1): > 16 µM
- IC50 (TE-10): > 16 µM
- IC50 (KINGS-1): > 16 µM
- IC50 (NB6): 13.7 µM
- IC50 697: > 16 µM
- IC50 (KG-1): > 16 µM
- IC50 (MFM-223): > 16 µM
- IC50 (NCI-H2126): > 16 µM
- IC50 (ES5): > 16 µM
- IC50 (KLE): > 16 µM
- IC50 (COLO-668): > 16 µM

SMILES: NC(=O)c1cccc(-c2cc(Nc3ccc(OC(F)(F)F)cc3)ncn2)c1
- IC50 (EW-3): > 1.28 µM
- IC50 (NCI-H1395): > 1.28 µM
- IC50 (BV-173): 0.286 µM
- IC50 (GAK): > 1.28 µM
- IC50 (EM-2): 0.235 µM
- IC50 (SF-539): > 1.28 µM
- IC50 (LB996-RCC): > 1.28 µM
- IC50 (NCI-H1770): > 1.28 µM
- IC50 (SNB-75): > 1.28 µM
- IC50 (U-266): > 1.28 µM
- IC50 (MOLT-16): > 1.28 µM
- IC50 (BB49-HNC): > 1.28 µM
- IC50 (RKO): > 1.28 µM
- IC50 (MN-60): > 1.28 µM
- IC50 (D-502MG): > 1.28 µM
- IC50 (ATN-1): > 1.28 µM
- IC50 (no-11): > 1.28 µM
- IC50 (CTB-1): > 1.28 µM
- IC50 (GT3TKB): > 1.28 µM
- IC50 (ML-2): > 1.28 µM
- IC50 (IA-LM): > 1.28 µM
- IC50 (HCC1187): > 1.28 µM
- IC50 (U-87 MG): > 1.28 µM
- IC50 (GB-1): > 1.28 µM
- IC50 (KE-37): > 1.28 µM
- IC50 (LS-123): > 1.28 µM
- IC50 (IST-MEL1): > 1.28 µM
- IC50 (K5): > 1.28 µM
- IC50 (PSN1): > 1.28 µM
- IC50 (NCI-H1092): > 1.28 µM
- IC50 (NCI-H720): > 1.28 µM
- IC50 (NCI-H526): > 1.28 µM
- IC50 (VA-ES-BJ): > 1.28 µM
- IC50 (KARPAS-299): > 1.28 µM
- IC50 (MOLT-4): > 1.28 µM
- IC50 (NCI-H1581): > 1.28 µM
- IC50 (BB30-HNC): > 1.28 µM
- IC50 (NCI-H1650): > 1.28 µM
- IC50 (OCI-AML2): > 1.28 µM
- IC50 (NOS-1): 0.571 µM
- IC50 (TE-10): > 1.28 µM
- IC50 (KINGS-1): > 1.28 µM
- IC50 (NB6): > 1.28 µM
- IC50 697: > 1.28 µM
- IC50 (KG-1): > 1.28 µM
- IC50 (MFM-223): > 1.28 µM
- IC50 (NCI-H2126): > 1.28 µM
- IC50 (ES5): > 1.28 µM
- IC50 (KLE): > 1.28 µM
- IC50 (COLO-668): > 1.28 µM
